Assays:
[1] = biological target: T1, Recombinant N-terminal GST tag full-length human HDAC8 (Homo sapiens, UniProt Q9BY41); test: HDAC8 probe binding assay, time resolved fluorescence (TRF) format; settings: compounds grouped by IC50 range (Table 2)
T1 construct: Recombinant N-terminal GST tag full-length human HDAC8; purchased SignalChem H90-30G-1000; host or cells: baculovirus in Sf9 insect cells
T1 sequence (Q9BY41 1-377): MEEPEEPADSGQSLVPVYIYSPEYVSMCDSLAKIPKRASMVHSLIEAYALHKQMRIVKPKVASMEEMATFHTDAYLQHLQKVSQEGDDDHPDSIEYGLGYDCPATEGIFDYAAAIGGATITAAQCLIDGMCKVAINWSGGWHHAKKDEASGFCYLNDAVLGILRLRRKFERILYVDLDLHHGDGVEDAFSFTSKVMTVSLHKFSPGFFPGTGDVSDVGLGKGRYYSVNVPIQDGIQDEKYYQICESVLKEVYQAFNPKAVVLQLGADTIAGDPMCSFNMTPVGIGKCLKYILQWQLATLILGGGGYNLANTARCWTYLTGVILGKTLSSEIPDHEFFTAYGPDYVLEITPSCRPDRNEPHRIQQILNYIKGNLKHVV
Outline: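 IC50 values come from four-parameter logistic fits of percent inhibition, scaled between DMSO (high) and no-enzyme (low) controls. Time-resolved fluorescence (ex 340, em 485/535 nm) was read after 16 h at room temperature. Enzyme was Sf9-expressed full-length human HDAC8 with an N-terminal GST tag, in a probe-binding format.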

[2] = biological target: T2, Full length human recombinant HDAC8 protein (Homo sapiens, UniProt Q9BY41); test: In vitro histone deacetylase assay: enzymatic HDAC8 electrophoretic mobility shift assay; assay type: biochemical; settings: electrophoretic mobility shift assay; enzyme 1 nM; 2 μM fluorescently labeled peptide substrate RHKK(Ac)-NH2; 25° C.; 12 concentrations; read-out: HDAC8 IC50
T2 construct: Full length human recombinant HDAC8 protein was expressed in baculoviral system; made in house
T2 sequence (Q9BY41 1-377): T1 sequence (Q9BY41 1-377)

Row | Compound | IC50 [1] [nM] | IC50 [2] [nM]
1 | O=C(NO)c1ccc2c(c1)N(Cc1cccc(Cl)c1)C(=O)CO2 [Compound I-143, 4-(3-chlorobenzyl)-N-hydroxy-3-oxo-3,4-dihydro-2H-benzo[b][1,4]oxazine-6-carboxamide] | ≤ 25 | < 25
2 | CS(=O)(=O)c1cccc(CN2C(=O)COc3ccc(C(=O)NO)cc32)c1 [Compound I-145, N-hydroxy-4-(3-(methylsulfonyl)benzyl)-3-oxo-3,4-dihydro-2H-benzo[b][1,4]oxazine-6-carboxamide] | 25 to 100 | 25 to 100
3 | O=C(NO)c1ccc2c(c1)N(Cc1ccccc1Cl)C(=O)CO2 [Compound I-147, 4-(2-chlorobenzyl)-N-hydroxy-3-oxo-3,4-dihydro-2H-benzo[b][1,4]oxazine-6-carboxamide] | 25 to 100 | < 25
4 | O=C(NO)c1ccc2c(c1)N(CC1CCCCC1)C(=O)CO2 [Compound I-149, 4-(cyclohexylmethyl)-N-hydroxy-3-oxo-3,4-dihydro-2H-benzo[b][1,4]oxazine-6-carboxamide] | 25 to 100 | 25 to 100
5 | COc1ccc(CN2C(=O)C(C)Oc3ccc(C(=O)NO)cc32)cc1 (centres unmarked) [Compound I-151, N-hydroxy-4-(4-methoxybenzyl)-2-methyl-3-oxo-3,4-dihydro-2H-benzo[b][1,4]oxazine-6-carboxamide] | ≤ 25 | < 25
6 | CC1Oc2ccc(C(=O)NO)cc2N(Cc2ccc(S(C)(=O)=O)cc2)C1=O (centres unmarked) [Compound I-152, N-hydroxy-2-methyl-4-(4-(methylsulfonyl)benzyl)-3-oxo-3,4-dihydro-2H-benzo[b][1,4]oxazine-6-carboxamide] | ≤ 25 | < 25
7 | CC1COc2ccc(C(=O)NO)cc2N1Cc1ccccc1 (centres unmarked) [Compound I-154, 4-benzyl-N-hydroxy-3-methyl-3,4-dihydro-2H-benzo[b][1,4]oxazine-6-carboxamide] | 25 to 100 | 25 to 100
8 | COc1ccc(CN2C(=O)C3(CCC3)Oc3ccc(C(=O)NO)cc32)cc1 [Compound I-157, N-hydroxy-4-(4-methoxybenzyl)-3-oxo-3,4-dihydrospiro[benzo[b][1,4]oxazine-2,1′-cyclobutane]-6-carboxamide] | 25 to 100 | 25 to 100
9 | COc1ccc(CN2C(=O)C(C)(C)Oc3ccc(C(=O)NO)cc32)c(F)c1 [Compound I-160, 4-(2-fluoro-4-methoxybenzyl)-N-hydroxy-2,2-dimethyl-3-oxo-3,4-dihydro-2H-benzo[b][1,4]oxazine-6-carboxamide] | ≤ 25 | < 25
10 | CC1(C)Oc2ccc(C(=O)NO)cc2N(Cc2ccc(Cl)cc2F)C1=O [Compound I-161, 4-(4-chloro-2-fluorobenzyl)-N-hydroxy-2,2-dimethyl-3-oxo-3,4-dihydro-2H-benzo[b][1,4]oxazine-6-carboxamide] | ≤ 25 | < 25
11 | Cc1ccc2nc(CN3C(=O)COc4ccc(C(=O)NO)cc43)oc2c1 [Compound I-213, N-hydroxy-4-((6-methylbenzo[d]oxazol-2-yl)methyl)-3-oxo-3,4-dihydro-2H-benzo[b][1,4]oxazine-6-carboxamide] | ≤ 25 | < 25
12 | O=C(NO)c1ccc2c(c1)N(Cc1cn3ccccc3n1)C(=O)CO2 [Compound I-216, N-hydroxy-4-(imidazo[1,2-a]pyridin-2-ylmethyl)-3-oxo-3,4-dihydro-2H-benzo[b][1,4]oxazine-6-carboxamide] | 25 to 100 | 25 to 100
13 | O=C(NO)c1ccc2c(c1)N(Cc1nc3cc(F)ccc3o1)C(=O)CO2 [Compound I-217, 4-((5-fluorobenzo[d]oxazol-2-yl)methyl)-N-hydroxy-3-oxo-3,4-dihydro-2H-benzo[b][1,4]oxazine-6-carboxamide] | ≤ 25 | < 25
14 | O=C(NO)c1ccc2c(c1)N(Cc1nc3ccc(F)cc3o1)C(=O)CO2 [Compound I-218, 4-((6-fluorobenzo[d]oxazol-2-yl)methyl)-N-hydroxy-3-oxo-3,4-dihydro-2H-benzo[b][1,4]oxazine-6-carboxamide] | ≤ 25 | < 25
15 | O=C(NO)c1ccc2c(c1)N(Cc1ccc(-c3ncco3)cc1)C(=O)CO2 [Compound I-221, N-hydroxy-4-(4-(oxazol-2-yl)benzyl)-3-oxo-3,4-dihydro-2H-benzo[b][1,4]oxazine-6-carboxamide] | ≤ 25 | < 25
16 | O=C(NO)c1ccc2c(c1)N(Cc1ccn(-c3ccccc3)n1)C(=O)CO2 [Compound I-222, N-hydroxy-3-oxo-4-((1-phenyl-1H-pyrazol-3-yl)methyl)-3,4-dihydro-2H-benzo[b][1,4]oxazine-6-carboxamide] | ≤ 25 | < 25

Row | Compound | IC50 [1] [nM] | IC50 [2] [nM]
17 | O=C(NO)c1ccc2c(c1)N(Cc1cnn(-c3ccccc3)c1)C(=O)CO2 [Compound I-223, N-hydroxy-3-oxo-4-((1-phenyl-1H-pyrazol-4-yl)methyl)-3,4-dihydro-2H-benzo[b][1,4]oxazine-6-carboxamide] | ≤ 25 | < 25
18 | O=C(NO)c1ccc2c(c1)N(Cc1ccc(-n3cccn3)cc1)C(=O)CO2 [Compound I-224, 4-(4-(1H-pyrazol-1-yl)benzyl)-N-hydroxy-3-oxo-3,4-dihydro-2H-benzo[b][1,4]oxazine-6-carboxamide] | ≤ 25 | < 25
19 | COc1ccc(CN2C(=O)COc3ccc(C(=O)NO)cc32)c(Cl)c1 [Compound I-242, 4-(2-chloro-4-methoxybenzyl)-N-hydroxy-3-oxo-3,4-dihydro-2H-benzo[b][1,4]oxazine-6-carboxamide] | ≤ 25 | < 25
20 | COc1ccc(CN2C(=O)COc3ccc(C(=O)NO)cc32)cc1Cl [Compound I-243, 4-(3-chloro-4-methoxybenzyl)-N-hydroxy-3-oxo-3,4-dihydro-2H-benzo[b][1,4]oxazine-6-carboxamide] | ≤ 25 | < 25
21 | COc1ccc(CN2C(=O)COc3ccc(C(=O)NO)cc32)cc1C [Compound I-244, N-hydroxy-4-(4-methoxy-3-methylbenzyl)-3-oxo-3,4-dihydro-2H-benzo[b][1,4]oxazine-6-carboxamide] | 25 to 100 | < 25
22 | COc1ccc(CN2C(=O)COc3ccc(C(=O)NO)cc32)cc1F [Compound I-245, 4-(3-fluoro-4-methoxybenzyl)-N-hydroxy-3-oxo-3,4-dihydro-2H-benzo[b][1,4]oxazine-6-carboxamide] | ≤ 25 | < 25
23 | COc1ccc(CN2C(=O)COc3ccc(C(=O)NO)cc32)cc1C(F)(F)F [Compound I-246, N-hydroxy-4-(4-methoxy-3-(trifluoromethyl)benzyl)-3-oxo-3,4-dihydro-2H-benzo[b][1,4]oxazine-6-carboxamide] | ≤ 25 | < 25
24 | COc1ccc(CN2C(=O)COc3ccc(C(=O)NO)cc32)c(F)c1F [Compound I-247, 4-(2,3-difluoro-4-methoxybenzyl)-N-hydroxy-3-oxo-3,4-dihydro-2H-benzo[b][1,4]oxazine-6-carboxamide] | ≤ 25 | < 25
25 | COc1cc(F)c(CN2C(=O)COc3ccc(C(=O)NO)cc32)c(F)c1 [Compound I-248, 4-(2,6-difluoro-4-methoxybenzyl)-N-hydroxy-3-oxo-3,4-dihydro-2H-benzo[b][1,4]oxazine-6-carboxamide] | ≤ 25 | < 25
26 | COc1ccc(CN2C(=O)COc3ccc(C(=O)NO)cc32)c(C(F)(F)F)c1 [Compound I-249, N-hydroxy-4-(4-methoxy-2-(trifluoromethyl)benzyl)-3-oxo-3,4-dihydro-2H-benzo[b][1,4]oxazine-6-carboxamide] | 25 to 100 | 100 to 1000
27 | CCOc1c(F)cc(CN2C(=O)COc3ccc(C(=O)NO)cc32)cc1F [Compound I-250, 4-(4-ethoxy-3,5-difluorobenzyl)-N-hydroxy-3-oxo-3,4-dihydro-2H-benzo[b][1,4]oxazine-6-carboxamide] | 25 to 100 | 25 to 100
28 | O=C(NO)c1ccc2c(c1)N(Cc1ccc(-c3ccccc3)cc1)C(=O)CO2 [Compound I-251, 4-([1,1′-biphenyl]-4-ylmethyl)-N-hydroxy-3-oxo-3,4-dihydro-2H-benzo[b][1,4]oxazine-6-carboxamide] | ≤ 25 | < 25
29 | O=C(NO)c1ccc2c(c1)N(Cc1cc(Cl)ccc1Cl)C(=O)CO2 [Compound I-252, 4-(2,5-dichlorobenzyl)-N-hydroxy-3-oxo-3,4-dihydro-2H-benzo[b][1,4]oxazine-6-carboxamide] | ≤ 25 | < 25
30 | O=C(NO)c1ccc2c(c1)N(Cc1c(Cl)cccc1Cl)C(=O)CO2 [Compound I-253, 4-(2,6-dichlorobenzyl)-N-hydroxy-3-oxo-3,4-dihydro-2H-benzo[b][1,4]oxazine-6-carboxamide] | 25 to 100 | 25 to 100
31 | O=C(NO)c1ccc2c(c1)N(Cc1cccc(Cl)c1Cl)C(=O)CO2 [Compound I-254, 4-(2,3-dichlorobenzyl)-N-hydroxy-3-oxo-3,4-dihydro-2H-benzo[b][1,4]oxazine-6-carboxamide] | ≤ 25 | < 25

Reference: patent US10370343B2, “[6,6] Fused bicyclic HDAC8 inhibitors” (FORMA Therapeutics, Inc., priority 2015, dated 2019)
